Assay results from US9504755B2, “Multi-arm polymeric alkanoate conjugates” (Nektar Therapeutics, priority 2008, dated 2016).
Marks after values point to notes of the source that are not given here.

How the values were obtained:
[1] = tested on: LS174T tumors; assay: Anti-tumor activity in LS174T colorectal mouse xenograft model; format: in vivo
Experimental: (§1) H460, LS174T and LoVo tumors were established in female athymic nude mice. Groups of 10 mice received a total of three single doses of 4-ARM-PEG20K-BA-DOC or docetaxel administered every 7 days (q7d×3) at several doses up to a maximum tolerated dose (MTD). Control groups received no treatment after tumor implant. Animals were weighed daily for the first five days and twice weekly thereafter. Tumor volumes were measured twice weekly after the first drug injection.
(§2) Anti-tumor activity was measured as changes in tumor volume, time to reach endpoint, and complete or partial tumor regression.
(§3) Treatment outcome was evaluated by Tumor Growth Delay (TGD), which is defined as the increase in median time to endpoint in a treatment group compared to the control group. Here it is expressed as % TGD, as a percentage to the median time to endpoint of the control group.
(§4) A tumor whose volume was reduced to 50% or less for three consecutive measurements compared to its volume on Day 1 was considered to be in partial regression. Complete regression was defined as volume […] 13.5 mm^3 for three consecutive measurements.
(§5) Acceptable toxicity was defined as a group mean body weight (BW) loss of less than 20% during the study and not more than one treatment-related death among ten treated animals.

[2] = tested on: H460 tumors; assay: Anti-tumor activity in H460 non-small cell lung mouse xenograft model; format: in vivo
Experimental: as §1, §2, §3, §4, §5

[3] = tested on: LoVo tumors; assay: Anti-tumor activity in LoVo colorectal mouse xenograft model; format: in vivo
Experimental: as §1, §2, §3, §4, §5

[4] = Pharmacokinetics after IV infusion in Beagle dogs; format: in vivo, dog; settings: Beagle, dog, plasma, male dogs, single IV dose 0.75 mg/kg
Experimental: The objective of the study was to assess the pharmacokinetics and excretion of docetaxel and 4-ARM-PEG20K-BA-docetaxel after intravenous infusion to dogs.
Pharmacokinetics were evaluated in male dogs (4 dogs/dose level) dosed with 0, 0.75, 2, or 4 mg/kg (0, 15, 40, and 80 mg/m^2/dose) of 4-ARM-PEG20K-BA-docetaxel or 0.75 mg/kg (15 mg/m^2) docetaxel. 4-ARM-PEG20K-BA-docetaxel and docetaxel were administered via a cephalic or saphenous vein disposable catheter as 60-min intravenous infusions at 4 mL/kg/hr. Seventeen blood samples were obtained by jugular venipuncture or Abbacoth IV catheter between 0 and 168 hr post-dose. Plasma concentrations of 4-ARM-PEG20K-BA-docetaxel and docetaxel were determined.

[5] = 12.7 mg/kg (38.1 mg/m^2), q7d×3
[6] = 16.9 mg/kg (50.7 mg/m^2), q7d×3
[7] = 22.5 mg/kg (67.5 mg/m^2), q7d×3
[8] = 30 mg/kg (90 mg/m^2), q7d×3 (MTD of docetaxel)
[9] = 30 mg/kg (90 mg/m^2), q7d×3 (MTD of docetaxel), listed as docetaxel
[10] = 18.7 mg/kg (56.1 mg/m^2), q7d×3
[11] = 25 mg/kg (75 mg/m^2), q7d×3 (MTD of docetaxel)

SMILES: CC(=O)O[C@@]12CO[C@@H]1C[C@H](O)[C@@]1(C)C(=O)[C@H](O)C3=C(C)[C@@H](OC(=O)[C@H](O)[C@@H](NC(=O)OC(C)(C)C)c4ccccc4)C[C@@](O)([C@@H](OC(=O)c4ccccc4)[C@H]21)C3(C)C [Docetaxel, reference compound]
- BW Loss (%) [1, 5]: 8.8%
- Day of BW Nadir [1, 5]: 23
- No. Surviving/No. Treated Mice [1, 5]: 10/10
- PR (partial regressions) [1, 5]: 0
- TGD (%) [1, 5]: 69* %
- BW Loss (%) [1, 6]: 11.2%
- Day of BW Nadir [1, 6]: 23
- No. Surviving/No. Treated Mice [1, 6]: 10/10
- PR (partial regressions) [1, 6]: 0
- TGD (%) [1, 6]: 96* %
- BW Loss (%) [1, 7]: 6.7%
- Day of BW Nadir [1, 7]: 23
- No. Surviving/No. Treated Mice [1, 7]: 10/10
- PR (partial regressions) [1, 7]: 0
- TGD (%) [1, 7]: 135* %
- Day of BW Nadir ([1]; 30 mg/kg (90 mg/m^2), q7d×3): 23
- No. Surviving/No. Treated Mice ([1]; 30 mg/kg (90 mg/m^2), q7d×3): 10/10
- BW Loss (%) [1, 8]: 16.6%
- PR (partial regressions) [1, 8]: 0
- TGD (%) [1, 8]: 166* %
- PR (partial regressions) [1, 9]: no partial regressions
- TGD (%) [1, 9]: 166%
- BW Loss (%) ([2]; 10 mg/kg (30 mg/m^2), q7d×3): 0/0%
- No. Surviving/No. Treated Mice ([2]; 10 mg/kg (30 mg/m^2), q7d×3): 10/10
- TGD (%) ([2]; 10 mg/kg (30 mg/m^2), q7d×3): −2%
- BW Loss (%) ([2]; 14 mg/kg (42 mg/m^2), q7d×3): 4.1%
- Day of BW Nadir ([2]; 14 mg/kg (42 mg/m^2), q7d×3): 19
- No. Surviving/No. Treated Mice ([2]; 14 mg/kg (42 mg/m^2), q7d×3): 10/10
- TGD (%) ([2]; 14 mg/kg (42 mg/m^2), q7d×3): 4%
- BW Loss (%) [2, 10]: 9.7%
- Day of BW Nadir [2, 10]: 22
- No. Surviving/No. Treated Mice [2, 10]: 10/10
- TGD (%) [2, 10]: 23%
- Day of BW Nadir ([2]; 25 mg/kg (75 mg/m^2), q7d×3): 26
- No. Surviving/No. Treated Mice ([2]; 25 mg/kg (75 mg/m^2), q7d×3): 10/10
- BW Loss (%) [2, 11]: 15.5%
- TGD (%) [2, 11]: 48%
- TGD (%) ([2]; 25 mg/kg (75 mg/m^2), q7d×3 (MTD of docetaxel), listed as docetaxel): 48%
- antitumor activity below MTD ([2]; 4-ARM-PEG20K-BA-DOC at 19 mg/kg (58% of its MTD), docetaxel doses less than 25 mg/kg): did not
- BW Loss (%) [3, 5]: 5.0%
- Day of BW Nadir [3, 5]: 24
- No. Surviving/No. Treated Mice [3, 5]: 10/10
- PR (partial regressions) [3, 5]: 0
- TGD (%) [3, 5]: 7%
- BW Loss (%) [3, 6]: 12.8%
- Day of BW Nadir [3, 6]: 21
- No. Surviving/No. Treated Mice [3, 6]: 10/10
- PR (partial regressions) [3, 6]: 0
- TGD (%) [3, 6]: 70** %
- BW Loss (%) [3, 7]: 14.6%
- Day of BW Nadir [3, 7]: 24
- No. Surviving/No. Treated Mice [3, 7]: 10/10
- PR (partial regressions) [3, 7]: 0
- TGD (%) [3, 7]: 32* %
- BW Loss (%) ([3]; 30 mg/kg (90 mg/m^2), q7d×3): 13.3%
- Day of BW Nadir ([3]; 30 mg/kg (90 mg/m^2), q7d×3): 21
- No. Surviving/No. Treated Mice ([3]; 30 mg/kg (90 mg/m^2), q7d×3): 10/10
- PR (partial regressions) ([3]; 30 mg/kg (90 mg/m^2), q7d×3): 0
- TGD (%) ([3]; 30 mg/kg (90 mg/m^2), q7d×3 (MTD for both agents)): 64** %
- TGD (%) ([3]; 30 mg/kg (90 mg/m^2), q7d×3 (MTD for both agents), listed as docetaxel): 64%
- AUC(0-t) ([4]; read-out: AUClast, analyte docetaxel): 479 ng·h/mL
- Cmax ([4]; read-out: Cmax, analyte docetaxel): 223 ng/mL
- Tmax ([4]; read-out: Tmax, analyte docetaxel): 52.8 min
